Test results published in BindingDB's records for doi:10.1073/pnas.0805677105 (Burnham Institute For Medical Research, 2008).

Assays:
[1] = target: T1, Mitogen-activated protein kinase 8 (Homo sapiens, UniProt P45983); assay: DELFIA Assay (Dissociation Enhanced Lanthanide Fluoro-Immuno Assay); details: pH 7.8
Experimental: Compound was evaluated for its ability to disrupt the interaction of pepJIP1 with JNK1 by using DELFIA assay. DELFIA is a heterogeneous assay whereby a biotin-linked pepJIP1 is adsorbed onto a streptavidin-coated plate followed by incubation with GST-JNK1. […] Controls include unlabeled peptide and blanks receiving no compounds.

[2] = target: T1, Mitogen-activated protein kinase 8; assay: In Vitro Kinase Assay (LanthaScreen Kinase Assay); details: pH 7.5; 22 °C

T1 sequence (P45983 whole entry): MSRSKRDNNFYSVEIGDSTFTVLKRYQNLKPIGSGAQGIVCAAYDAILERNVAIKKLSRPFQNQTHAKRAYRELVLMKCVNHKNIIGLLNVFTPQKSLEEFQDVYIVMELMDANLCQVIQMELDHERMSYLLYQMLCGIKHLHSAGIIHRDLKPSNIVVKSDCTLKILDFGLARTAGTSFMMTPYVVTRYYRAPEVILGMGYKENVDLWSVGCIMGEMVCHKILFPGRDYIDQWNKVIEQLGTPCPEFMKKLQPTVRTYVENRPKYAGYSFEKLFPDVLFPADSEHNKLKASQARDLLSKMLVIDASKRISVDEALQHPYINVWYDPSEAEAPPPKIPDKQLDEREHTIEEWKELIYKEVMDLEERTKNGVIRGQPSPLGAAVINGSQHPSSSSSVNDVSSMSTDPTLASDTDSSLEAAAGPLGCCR

| SMILES | IC50 [1] | IC50 [2] |
| --- | --- | --- |
| O=c1[nH]nc(Sc2ccc([N+](=O)[O-])s2)n1-c1ccc2c(c1)OCCO2 [4-(2,3-dihydro-1,4-benzodioxin-6-yl)-5-[(5-nitrothiophen-2-yl)sulfanyl]-4H-1,2,4-triazol-3-ol] | > 25 µM | > 100 µM |
| Cc1nc(Sc2nnnn2-c2ccccc2)sc1C(=O)O [4-methyl-2-[(1-phenyl-1H-1,2,3,4-tetrazol-5-yl)sulfanyl]-1,3-thiazole-5-carboxylic acid] | 7.5 µM | > 100 µM |
| c1ccc(CSc2nnnn2-c2ccccc2)cc1 [5-(benzylsulfanyl)-1-phenyl-1H-1,2,3,4-tetrazole] | > 25 µM | > 100 µM |
| O=c1[nH]nc(Sc2ncc([N+](=O)[O-])s2)n1-c1ccccc1 [5-[(5-nitro-1,3-thiazol-2-yl)sulfanyl]-4-phenyl-4H-1,2,4-triazol-3-ol] | 0.237 µM | 3.1 µM |
| O=[N+]([O-])c1cnc(Sc2nnnn2-c2ccccc2)s1 [5-nitro-2-[(1-phenyl-1H-1,2,3,4-tetrazol-5-yl)sulfanyl]-1,3-thiazole] | 0.183 µM | 3.3 µM |
